Results on eight compounds are retold here after PubChem BioAssay (NCI).

“And” between values parts separate entries of the source, which are not always exact repeats. Equal entries are not always repeated.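 In this assay, cells in 96-well plates receive the compound at five concentrations for 48 hours. Endpoints are linearly interpolated between the surrounding concentrations. The concentration for 50% growth inhibition is given as GI50. Definition used: TGI = concentration required for complete inhibition of growth.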

One experiment deals with CAKI-1 renal. In words: DTP human tumour cell line panel, 48 h.
Consider `COc1ccc(-c2oc3cc(-c4cc5oc(-c6ccc(OC)cc6)c(-c6ccc(OC)cc6)c5cc4OC)c(OC)cc3c2-c2ccc(OC)cc2)cc1`, for which the total growth inhibition concentration (TGI) is above 100 µM.
Still for that read-out and setting: under `CCOC(=O)c1c(NC(=O)c2ccccc2)c(C#N)c2n1CCCCC2` stands above 100 µM; under `O=C(NCCC1CNc2ccccc21)OCc1ccccc1` (stereo not drawn), above 100 µM; under `c1cc(-c2ccc(-c3ccsc3)s2)cs1`, above 100 µM.
Still for that read-out and setting: as for `COc1ccc(CCCCNCc2cccc(CNCCCCc3ccc(OC)cc3)c2)cc1`, the figure is 3.63 µM; as for `N#Cc1sc2nc3ccccc3n2c1N`, above 100 µM.
The same measure, in the same setting: as for `COc1ccc(OC)c2sc(N3C(=O)/C(=C/c4cccc(Oc5ccccc5)c4)N=C3c3ccccc3)nc12`, the figure is above 100 µM.
Regarding `COc1cc([C@@H]2c3cc4c(cc3[C@@H](Nc3ccc(NC(=O)c5cc([N+](=O)[O-])cn5C)cc3)[C@H]3COC(=O)[C@H]23)OCO4)cc(OC)c1O`, the concentration for 50% growth inhibition (GI50) was 0.0214 µM and 0.0725 µM; the TGI was 0.204 µM and 0.338 µM.

Another experiment concerns CCRF-CEM leukemia. The experiment in a line: DTP human tumour cell line panel, 48 h.
Compound `COc1ccc(-c2oc3cc(-c4cc5oc(-c6ccc(OC)cc6)c(-c6ccc(OC)cc6)c5cc4OC)c(OC)cc3c2-c2ccc(OC)cc2)cc1` gave a total growth inhibition concentration (TGI) above 100 µM.
The same measure, in the same setting: under `CCOC(=O)c1c(NC(=O)c2ccccc2)c(C#N)c2n1CCCCC2` stands above 100 µM; under `O=C(NCCC1CNc2ccccc21)OCc1ccccc1` (stereo not drawn), above 100 µM; under `c1cc(-c2ccc(-c3ccsc3)s2)cs1`, 44.4 µM.
The same measure, in the same setting: under `COc1ccc(CCCCNCc2cccc(CNCCCCc3ccc(OC)cc3)c2)cc1` stands 4.47 µM; under `N#Cc1sc2nc3ccccc3n2c1N`, above 100 µM.
On the same count and under the same terms, as for `COc1ccc(OC)c2sc(N3C(=O)/C(=C/c4cccc(Oc5ccccc5)c4)N=C3c3ccccc3)nc12`, the figure is above 100 µM; as for `COc1cc([C@@H]2c3cc4c(cc3[C@@H](Nc3ccc(NC(=O)c5cc([N+](=O)[O-])cn5C)cc3)[C@H]3COC(=O)[C@H]23)OCO4)cc(OC)c1O`, 0.14 µM.

The test system of the next experiment is SF-539 CNS. In words: DTP human tumour cell line panel, 48 h.
As to `COc1ccc(-c2oc3cc(-c4cc5oc(-c6ccc(OC)cc6)c(-c6ccc(OC)cc6)c5cc4OC)c(OC)cc3c2-c2ccc(OC)cc2)cc1`, the TGI was above 100 µM.
On the same count and under the same terms, as for `c1cc(-c2ccc(-c3ccsc3)s2)cs1`, the figure is 89.8 µM.
Consider `N#Cc1sc2nc3ccccc3n2c1N`, for which the TGI is above 100 µM.
On the same count and under the same terms, under `COc1cc([C@@H]2c3cc4c(cc3[C@@H](Nc3ccc(NC(=O)c5cc([N+](=O)[O-])cn5C)cc3)[C@H]3COC(=O)[C@H]23)OCO4)cc(OC)c1O` stands 0.446 µM and 0.414 µM.

For another experiment, the system named is SK-MEL-28 melanoma. In words: DTP human tumour cell line panel, 48 h.
Compound `COc1ccc(-c2oc3cc(-c4cc5oc(-c6ccc(OC)cc6)c(-c6ccc(OC)cc6)c5cc4OC)c(OC)cc3c2-c2ccc(OC)cc2)cc1` showed a TGI above 100 µM.
Still for that read-out and setting: under `CCOC(=O)c1c(NC(=O)c2ccccc2)c(C#N)c2n1CCCCC2` stands above 100 µM; under `O=C(NCCC1CNc2ccccc21)OCc1ccccc1` (stereo not drawn), above 100 µM; under `COc1ccc(CCCCNCc2cccc(CNCCCCc3ccc(OC)cc3)c2)cc1`, 3.73 µM.
In turn, `N#Cc1sc2nc3ccccc3n2c1N` had a TGI above 100 µM.
The same measure, in the same setting: as for `COc1ccc(OC)c2sc(N3C(=O)/C(=C/c4cccc(Oc5ccccc5)c4)N=C3c3ccccc3)nc12`, the figure is above 100 µM; as for `COc1cc([C@@H]2c3cc4c(cc3[C@@H](Nc3ccc(NC(=O)c5cc([N+](=O)[O-])cn5C)cc3)[C@H]3COC(=O)[C@H]23)OCO4)cc(OC)c1O`, above 100 µM.

The next experiment concerns HT29 colon. In words: DTP human tumour cell line panel, 48 h.
Compound `COc1ccc(-c2oc3cc(-c4cc5oc(-c6ccc(OC)cc6)c(-c6ccc(OC)cc6)c5cc4OC)c(OC)cc3c2-c2ccc(OC)cc2)cc1` displayed a TGI above 100 µM.
Same read-out and setting: as for `CCOC(=O)c1c(NC(=O)c2ccccc2)c(C#N)c2n1CCCCC2`, the figure is above 100 µM.
Compound `O=C(NCCC1CNc2ccccc21)OCc1ccccc1` (stereo not drawn) gave a total growth inhibition concentration (TGI) above 100 µM.
The same measure, in the same setting: as for `c1cc(-c2ccc(-c3ccsc3)s2)cs1`, the figure is above 100 µM.
Same read-out and setting: under `COc1ccc(CCCCNCc2cccc(CNCCCCc3ccc(OC)cc3)c2)cc1` stands 3.16 µM; under `N#Cc1sc2nc3ccccc3n2c1N`, above 100 µM.
In the case of `COc1ccc(OC)c2sc(N3C(=O)/C(=C/c4cccc(Oc5ccccc5)c4)N=C3c3ccccc3)nc12`, the concentration for total growth inhibition (TGI) was above 100 µM.
Compound `COc1cc([C@@H]2c3cc4c(cc3[C@@H](Nc3ccc(NC(=O)c5cc([N+](=O)[O-])cn5C)cc3)[C@H]3COC(=O)[C@H]23)OCO4)cc(OC)c1O` had a TGI of 1.33 µM.

In a further experiment the test system is SW-620 colon. The experiment in a line: DTP human tumour cell line panel, 48 h.
As to `COc1ccc(-c2oc3cc(-c4cc5oc(-c6ccc(OC)cc6)c(-c6ccc(OC)cc6)c5cc4OC)c(OC)cc3c2-c2ccc(OC)cc2)cc1`, the total growth inhibition concentration (TGI) is above 100 µM.
The same measure, in the same setting: as for `O=C(NCCC1CNc2ccccc21)OCc1ccccc1` (stereo not drawn), the figure is above 100 µM.
`c1cc(-c2ccc(-c3ccsc3)s2)cs1` showed a total growth inhibition concentration (TGI) above 100 µM.
`COc1ccc(CCCCNCc2cccc(CNCCCCc3ccc(OC)cc3)c2)cc1`: the TGI was 3.28 µM.
In the case of `N#Cc1sc2nc3ccccc3n2c1N`, the TGI is above 100 µM.
Same read-out and setting: as for `COc1ccc(OC)c2sc(N3C(=O)/C(=C/c4cccc(Oc5ccccc5)c4)N=C3c3ccccc3)nc12`, the figure is above 100 µM.

For the next experiment, the system named is HOP-92 NSCLC. In words: DTP human tumour cell line panel, 48 h.
As to `COc1ccc(-c2oc3cc(-c4cc5oc(-c6ccc(OC)cc6)c(-c6ccc(OC)cc6)c5cc4OC)c(OC)cc3c2-c2ccc(OC)cc2)cc1`, the TGI was above 100 µM.
In the case of `CCOC(=O)c1c(NC(=O)c2ccccc2)c(C#N)c2n1CCCCC2`, the total growth inhibition concentration (TGI) is above 100 µM.
The same measure, in the same setting: as for `O=C(NCCC1CNc2ccccc21)OCc1ccccc1` (stereo not drawn), the figure is above 100 µM.
The same measure, in the same setting: under `c1cc(-c2ccc(-c3ccsc3)s2)cs1` stands above 100 µM; under `COc1ccc(CCCCNCc2cccc(CNCCCCc3ccc(OC)cc3)c2)cc1`, 2.91 µM; under `N#Cc1sc2nc3ccccc3n2c1N`, above 100 µM.
Still for that read-out and setting: under `COc1ccc(OC)c2sc(N3C(=O)/C(=C/c4cccc(Oc5ccccc5)c4)N=C3c3ccccc3)nc12` stands above 100 µM.
For the compound `COc1cc([C@@H]2c3cc4c(cc3[C@@H](Nc3ccc(NC(=O)c5cc([N+](=O)[O-])cn5C)cc3)[C@H]3COC(=O)[C@H]23)OCO4)cc(OC)c1O`, the 50% growth inhibitory concentration (GI50) is 0.0549 µM; the concentration for total growth inhibition (TGI) is 39.9 µM and 19.7 µM.

Another experiment has as its system KM12 colon. The experiment in a line: DTP human tumour cell line panel, 48 h.
For `COc1ccc(-c2oc3cc(-c4cc5oc(-c6ccc(OC)cc6)c(-c6ccc(OC)cc6)c5cc4OC)c(OC)cc3c2-c2ccc(OC)cc2)cc1`, the TGI was above 100 µM.
Still for that read-out and setting: as for `CCOC(=O)c1c(NC(=O)c2ccccc2)c(C#N)c2n1CCCCC2`, the figure is above 100 µM; as for `O=C(NCCC1CNc2ccccc21)OCc1ccccc1` (stereo not drawn), above 100 µM.
On the same count and under the same terms, under `COc1ccc(CCCCNCc2cccc(CNCCCCc3ccc(OC)cc3)c2)cc1` stands 3.69 µM; under `N#Cc1sc2nc3ccccc3n2c1N`, 23.6 µM; under `COc1ccc(OC)c2sc(N3C(=O)/C(=C/c4cccc(Oc5ccccc5)c4)N=C3c3ccccc3)nc12`, above 100 µM.

For the next experiment, the system named is RXF 393 renal. The experiment in a line: DTP human tumour cell line panel, 48 h.
Consider `COc1ccc(-c2oc3cc(-c4cc5oc(-c6ccc(OC)cc6)c(-c6ccc(OC)cc6)c5cc4OC)c(OC)cc3c2-c2ccc(OC)cc2)cc1`, for which the TGI is above 100 µM.
